Results: PubChem BioAssay (NCI)
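Growth conditions: 96-well plates. Treatment: test compound, 48 hours, 5 concentrations. Analysis: linear interpolation between bracketing concentrations; unreached endpoints set to highest concentration. TGI denotes the concentration required for complete inhibition of growth.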

Columns and labels:
Assay in all cases: inhibition of tumour cell growth, NCI panel, 48 h
LOX IMVI melanoma = system: LOX IMVI melanoma
UACC-62 melanoma = system: UACC-62 melanoma
SR leukemia = system: SR leukemia
IGROV1 ovarian = system: IGROV1 ovarian
OVCAR-4 ovarian = system: OVCAR-4 ovarian
SF-539 CNS = system: SF-539 CNS
SK-OV-3 ovarian = system: SK-OV-3 ovarian
OVCAR-8 ovarian = system: OVCAR-8 ovarian
HCC-2998 colon = system: HCC-2998 colon
SK-MEL-5 melanoma = system: SK-MEL-5 melanoma
HOP-92 NSCLC = system: HOP-92 NSCLC
ACHN renal = system: ACHN renal
HCT-15 colon = system: HCT-15 colon
SNB-75 CNS = system: SNB-75 CNS
SNB-19 CNS = system: SNB-19 CNS
KM12 colon = system: KM12 colon
RXF 393 renal = system: RXF 393 renal
DLD-1 colon = system: DLD-1 colon
OVCAR-3 ovarian = system: OVCAR-3 ovarian
HCT-116 colon = system: HCT-116 colon
SW-620 colon = system: SW-620 colon
UO-31 renal = system: UO-31 renal
NCI-H23 lung = system: NCI-H23 lung
RXF-631 renal = system: RXF-631 renal
EKVX NSCLC = system: EKVX NSCLC
LXFL 529 NSCLC = system: LXFL 529 NSCLC
HT29 colon = system: HT29 colon
UACC-257 melanoma = system: UACC-257 melanoma
DMS 273 small cell lung = system: DMS 273 small cell lung
K-562 leukemia = system: K-562 leukemia
CAKI-1 renal = system: CAKI-1 renal
U251 CNS = system: U251 CNS
MALME-3M melanoma = system: MALME-3M melanoma
OVCAR-5 ovarian = system: OVCAR-5 ovarian
DMS 114 small cell lung = system: DMS 114 small cell lung
HOP-18 NSCLC = system: HOP-18 NSCLC
SK-MEL-2 melanoma = system: SK-MEL-2 melanoma
NCI-H460 lung = system: NCI-H460 lung
SK-MEL-28 melanoma = system: SK-MEL-28 melanoma
MOLT-4 leukemia = system: MOLT-4 leukemia
CCRF-CEM leukemia = system: CCRF-CEM leukemia
NCI-H522 lung = system: NCI-H522 lung
SNB-78 CNS = system: SNB-78 CNS
SN12C renal = system: SN12C renal
NCI-H226 lung = system: NCI-H226 lung
RPMI-8226 leukemia = system: RPMI-8226 leukemia
HOP-62 NSCLC = system: HOP-62 NSCLC
M14 melanoma = system: M14 melanoma
COLO 205 colon = system: COLO 205 colon
A498 renal = system: A498 renal
SF-295 CNS = system: SF-295 CNS
KM20L2 colon = system: KM20L2 colon
TK-10 renal = system: TK-10 renal
HL-60(TB) leukemia = system: HL-60(TB) leukemia
SF-268 CNS = system: SF-268 CNS
A549 NSCLC = system: A549 NSCLC
786-0 renal = system: 786-0 renal
M19-MEL melanoma = system: M19-MEL melanoma

Measured: TGI

CC(N)Cc1ccc(F)cc1 (stereo unspecified)
not listed: M19-MEL melanoma
> 100 µM: all other assays above

CNCCCCN(C)/[N+]([O-])=N\O
not listed: LOX IMVI melanoma | SR leukemia | A498 renal | TK-10 renal
> 100 µM: all other assays above
